# Columns and labels:
# C57BL/6J mice [1] = experiment: Amphetamine-induced locomotion; format: in vivo; conditions: (+)-JRT 1 mg/kg + AMPH 3 mg/kg
# Procedure: Figure S11. […] (A) Pretreatment with (+)-JRT (1 mg/kg,
# IP) can block AMPH-induced hyperlocomotion in female, but not male, mice. (B) Pretreatment with (+)-JRT (1 mg/kg, IP) […]
# AMPH = (+)-amphetamine; PCP = phencyclidine; VEH = vehicle; ns = not significant. *p < 0.05, **p < 0.01, ***p < 0.001, ****p < 0.0001, as compared to the comparator(s) indicated by a horizontal bar. See Methods and SI Appendix, Table S1 for full details on statistics.
# (1 picture or pasted object on this page, not shown here)
# Amphetamine-Induced Locomotion. The amphetamine-induced hyperlocomotion assay was performed using male and female C57BL/6J mice that were approximately 8 weeks old at the time of the experiments. Animals were first placed in the test arena (40 cm x 40 cm) for 15 min to obtain a basal reading of locomotion and habituate them to the testing arena.
# Next, animals were administered (+)-JRT (1 mg/kg) or VEH (2.5 mL/kg, i.p) and placed back in the test arena. After 15 min, the animals were administered (+)-amphetamine (3 mg/kg) or VEH (2.5 mL/kg) and placed back in the test arena for 60 minutes. Locomotion during the entire experiment was quantified using ANYmaze Video Tracking System, version 7.07 (Stoelting Co.). The test arena was cleaned thoroughly with 70% ethanol between trials. […]
# Reads were aligned to the GRCm39 genome assembly using STAR, processed with Picard, and counted with the Subread software. Transcript inclusion criteria consisted of a minimum raw expression level of 25 transcripts in a minimum of 4 samples. Surrogate variable analysis was conducted with the sva package 2023 release v3.5.0 in R and normalization and differential expression analysis was performed with DESeq2 v4.3 with a baseMean threshold of 10. Heatmaps were created with the pheatmap v1.0.12 with sample-wise z-scores plotted and both row and column grouping allowed using pearson's distances and ward.D for clustering. Gene-wise selection criteria for heatmaps were a baseMean expression threshold of 50 to focus on robustly expressed genes, p value < 0.05, and presence in the top 250 genes sorted by absolute value of log2FC. Additionally, z score was capped at 2 for visualization purposes. Schizophrenia gene sets were extracted from a recent TWAS study (30).
# For Figure S8G, the TWAS set was filtered for FDR < 0.01. Permutation testing was conducted to quantify the overlap of top genes from schizophrenia TWAS with the perm_test function from the bulkWarehouse package 2023 release v1.2.7.
# Briefly, the intersection of top differentially expressed genes and top TWAS genes is compared to an empirical distribution created by calculating the intersection with our top DEGs when randomly sampling candidate genes from our dataset equal to the size of the TWAS sample. […]
# C57BL/6J mice [2] = experiment: Sucrose preference test (SPT) after chronic CORT; format: in vivo; conditions: 1 mg/kg IP, two injections 48 h apart, CORT-sensitive mice; main effect of treatment P = 0.0364
# Procedure: remained housed in groups of three for the remainder of the study. All rats were acclimated to the colony room for up to one week prior to dosing. During the period of acclimation, rats were examined and handled daily, and weighed to assure adequate health and suitability. The room temperature was maintained between 20 °C and 23 °C with a relative humidity of 30%–70%. Lab Rodent Diet 5001 (W.F. Fisher, Cat # 11015) and water were provided ad libitum. Animals were randomly assigned across treatment groups. All testing was performed during the light phase of the light/dark cycle. Behavioral testing was conducted according to established protocols approved by the IACUC committee and PGI Standard Operation Procedures (SOP). […] All animals were carefully monitored to ensure their safety in the swim test and any animal unable to maintain a posture with its nose above water was immediately removed from the water and not used further in the study. […] This test lasted for 5 min and was video recorded. A blinded experimenter manually scored the videos for swimming, climbing, and immobility behavior. Scoring of the forced swim test was performed by trained technicians using a time sampling technique in which the animal in the video recorded test was viewed every 5 seconds and the behavior observed was noted (e.g., immobile, swimming, or climbing). […]
smiles,measurement,setting,value
CCN(CC)C(=O)[C@@H]1C=C2c3cccc4ccn(c34)C[C@H]2N(C)C1 [(+)-JRT],Locomotion (Figure 11A Females),"C57BL/6J mice [1]; female mice, VEH + VEH 101.9 ± 15.04",217.2 ± 47.70
same,Locomotion (Figure 11A Males),"C57BL/6J mice [1]; male mice, VEH + VEH 59.80 ± 4.206",361.2 ± 35.54
same,Effect on CORT-induced anhedonia (sucrose preference),C57BL/6J mice [2],rescued CORT-induced anhedonia
